From patent US10590393B2, “Retinoic acid enhanced human stem cell derived blood brain barrier model” (Wisconsin Alumni Research Foundation, priority 2012, dated 2020)

Key:
Assay type in all cases: cell-based, human
[1] = test system: efflux transporter genes in IMR90-4-derived BMECs; assay: qPCR of efflux transporter gene expression; conditions: compared to untreated samples
Method: Cells were washed once with PBS and dissociated with ACCUTASE (Invitrogen). Total RNA was extracted using an RNEASY Mini Kit (Qiagen) according to the manufacturer's instructions and quantified using a NanoDrop® ND-1000. cDNA was generated from 1 μg of total RNA using Omniscript reverse transcriptase (Qiagen) and an oligo-dT primer (Invitrogen). qPCR was conducted using 1 μL of cDNA and iQ SYBR Green Mastermix (Bio-Rad) on an iCycler (Bio-Rad). Relative expression was quantified between samples using the comparative cycle threshold (Ct) method with glyceraldehyde-3-phosphate dehydrogenase (GAPDH) as the housekeeping gene. […] Primer sequences were as previously reported.

[2] = test system: IMR90-4-derived BMECs; assay: Efflux transporter substrate accumulation; conditions: 10 μM RA vs. DMSO-treated controls; 1 h at 37° C.
Method: (§1) hiPSC-derived BMECs differentiated in the presence or absence of RA were subcultured onto 12-well plates in EC medium with 10 μM RA or equivalent DMSO depending on the differentiation condition. […] Cells were washed three times with phosphate-buffered saline (PBS) and then lysed with PBS containing 5% Triton X-100 (TX-100; Fisher). Fluorescence (485 nm excitation and 530 nm emission) was measured using a plate reader and radioactivity was measured on a scintillation counter. Fluorescence/radioactivity was normalized on a per cell basis by counting trypsin-dissociated cells on a hemacytometer. Duplicate or triplicate wells were used for each condition to calculate mean and standard deviation. Each experiment was conducted twice to ensure biological reproducibility.

[3] = test system: DF19-9-11T-derived BMECs; assay: Efflux transporter substrate accumulation; conditions: due to RA treatment
Method: as §1

SMILES: CC1=C(/C=C/C(C)=C/C=C/C(C)=C/C(=O)O)C(C)(C)CCC1 [RA, retinoic acid]
- ABCB1 (p-glycoprotein) upregulation, ΔΔCt [1]: 1.6±0.4
- ABCC1 (MRP1) upregulation, ΔΔCt [1]: 1.97±0.71
- ABCC2 (MRP2) upregulation, ΔΔCt [1]: 1.3±0.31
- ABCC5 (MRP5) upregulation, ΔΔCt [1]: 0.9±0.29
- ABCG2 (BCRP) upregulation, ΔΔCt [1]: 1.8±0.15
- decrease of DCFDA accumulation [2]: 2.9 fold
- decrease of colchicine accumulation [2]: 2.4 fold
- decrease of doxorubicin accumulation [2]: 1.6 fold
- decrease of rhodamine 123 accumulation [2]: 1.4 fold
- reduction in rhodamine 123 accumulation [3]: 1.5 fold
